Results reported in patent US11060153B2, “Fluorescence amplification method for forward genetic discovery of factors in human mRNA degradation” (Yale University, priority 2016, dated 2021).

System: human NMD
Test: CRISPR-based forward genetic screen of the GeCKO-LtCRISPR sgRNA library in "green" Fireworks cells (FACS enrichment rounds, deep sequencing of sgRNAs)
Format: cell-based
Conditions: for sgRNA abundance (%): deep sequencing reads for the sgRNA in the enriched cell population / all reads x 100, round 2, "green" Fireworks cells; for sgRNA enrichment (2nd round): reads in the enriched cell population / reads in total cells at the beginning of the 2nd round, measure of increased PTC(+) reporter fluorescence
Protocol: 1.8×10^8 (6×15 cm plates) “green” Fireworks cells were lentivirally transduced with the blasticidin-resistant GeCKO-LtCRISPR viral library (Shalem et al., Science 2014, 343:84-87) using 4.0 μm/ml of polybrene and propagated for 8-9 days in DMEM media supplemented with 10% FBS and 120 μm/ml hygromycin, 0.3 μg/ml puromycin and 3.0 μm/ml blasticidin. NMD-deficient cell populations (2×10^5 cells) were isolated from 4×10^8 transduced cells using a Bio-Rad S3e cell sorter (100 μm nozzle) and their genomic DNA was phenol-extracted. sgRNAs pools were PCR-amplified using RandomF (5′-[…] AACACCG-3′) (SEQ ID NO: 6) and RandomR (5′-[…] TAAAAC-3′) (SEQ ID NO: 7) primers and Gibson-cloned into the BsmBI-inearized LentiCRISPR (Shalem et al., Science 2014, 343:84-87) vector to obtain a lentiviral library (represented by 1.5×10^8 independent transformants) for the next enrichment round (FIG. 5C). Three rounds of GeCKO Lt-CRISPR library enrichment were conducted; 1.4×10^8 and 1.2×10^8 cells were sorted in the 2nd and 3rd rounds, respectively. sgRNAs obtained from the 2nd round were deep-sequenced and ranked (Table 1) according to their (i) overall abundance in the enriched sgRNA pool and (ii) enrichment over the starting sgRNA population in this round (since successful enrichment increases both of these numbers).
The Fireworks system was tested with the CRIPR-based knockout screening using the lentiviral GeCKO-lentiCRISPR sgRNA library (Shalem et al., Science 2014, 343:84-87), which contains 64,751 sgRNAs targeting 18,080 human genes. Ease of amplification of chromosomally-integrated sgRNAs by PCR allows multiple rounds of sgRNA library enrichment (FIG. 5C) as sgRNAs are iteratively re-transduced into the original Fireworks cell line after the each round of FACS selection in a SELEX-like (Tuerk and Gold, Science 1990, 249:505-510) manner. Fireworks-driven FACS throughput permits completion of one FACS cycle of genome-wide GeCKO library screening with nearly 800-fold library coverage in less than one hour. […] Importantly, sgRNA-specific effects are amplified, whereas cell-specific fluorescence noise is completely reset at the beginning of each sgRNA enrichment round (FIG. 5C), effectively eliminating false-positives arising from spontaneous and lentiviral insertion-induced (and therefore sgRNA-independent) mutations affecting reporters or the NMD pathway. An increase in the population of cells with a defect in NMD becomes evident during FACS rounds 2 and 3 of sgRNA library enrichment, as shown in FIG. 5D for the GeCKO-lentiCRISPR (Shalem et al., Science 2014, 343:84-87) library in the “green” Fireworks cell line. Here, sorting gates were chosen so as to collect no more than 0.16% of the negative cell population.
The pool of sgRNAs isolated from round 2 (FIG. 5C, 5D) of NMD-deficient population enrichment was deep sequenced to determine (i) the overall abundance of each sgRNA in the enriched pool and (ii) the enrichment factor for each surviving sgRNA over the starting sgRNA pool at this round. Here, the sgRNA enrichment factor serves as a measure of the increased fluorescence of the PTC(+) Fireworks reporter achieved by that sgRNA. The top 24 most abundant sgRNAs (of 64,751 sgRNAs originally present in the GeCKO library), which attained enrichment scores higher than 10, are listed in Table 1 along with their intended (Shalem et al., Science 2014, 343:84-87) gene targets.

Row | Substance | sgRNA abundance (%) | sgRNA enrichment (2nd round)
1 | 17 (CTATGAGGGGGTCAGTGACA; expressed or natural sequence) [compound 17] | 0.232% | 18.3
2 | 33 (TACCTATGTGCGTCAGCAGC; expressed or natural sequence) [compound 33] | 0.023% | 49.5
3 | 14 (GTTCTCTGATAATCAGAATG; expressed or natural sequence) [compound 14] | 0.439% | 14.7
4 | 15 (ACGCACCTGGTTGCTGGTAT; expressed or natural sequence) [compound 15] | 0.265% | 54.7
5 | 29 (TAAGTTGTCAGAAAACATGA; expressed or natural sequence) [compound 29] | 0.054% | 17.1
6 | 25 (TGCTTTGTGTTTCTTTACAC; expressed or natural sequence) [compound 25] | 0.083% | 17.0
7 | 24 (TCACGCTTCACGCTGACAGT; expressed or natural sequence) [compound 24] | 0.083% | 80.0
8 | 13 (AGTGTCCTCCTTAGCTCTGC; expressed or natural sequence) [compound 13] | 0.440% | 33.8
9 | 28 (TTCAAACTAGTAAGCAACAC; expressed or natural sequence) [compound 28] | 0.054% | 18.4
10 | 22 (TATGTCTTACCAGAAGCTGC; expressed or natural sequence) [compound 22] | 0.132% | 23.3
11 | 18 (TGAGCACATACTCTTCACAC; expressed or natural sequence) [compound 18] | 0.180% | 102.2
12 | 19 (CCGTGACATCACAGACCCGT; expressed or natural sequence) [compound 19] | 0.176% | 21.2
13 | 21 (GGTACCTTCACTGGAGCCAC; expressed or natural sequence) [compound 21] | 0.132% | 16.1
14 | 30 (TCACATCGGCAGCCACCCGT; expressed or natural sequence) [compound 30] | 0.043% | 30.7
15 | 12 (AGTGTCCTCCTTAGCTCTGC; expressed or natural sequence) [compound 12] | 0.872% | 118.7
16 | 32 (AGCCCATAATGTACCAGTGC; expressed or natural sequence) [compound 32] | 0.033% | 14.4
17 | 23 (CTCAACCGATTCCTTAGACG; expressed or natural sequence) [compound 23] | 0.125% | 19.5
18 | 27 (GAAAGACTGAGGAGCTGCTG; expressed or natural sequence) [compound 27] | 0.062% | 38.0
19 | 26 (TTAGCATCAGCTACTGCCAG; expressed or natural sequence) [compound 26] | 0.076% | 14.2
20 | 16 (GGATGACCAAGACGACATCA; expressed or natural sequence) [compound 16] | 0.262% | 18.3
21 | 20 (CGCATTGAAAACGTTTGCCG; expressed or natural sequence) [compound 20] | 0.153% | 18.4
22 | 31 (GCGCCCAGCTGCCAACACCA; expressed or natural sequence) [compound 31] | 0.036% | 53.9
23 | 11 (AGGTCCACTCACCATTGGAG; expressed or natural sequence) [compound 11] | 0.888% | 113.9
24 | 10 (TGATTACGTCCTCCACCTCG; expressed or natural sequence) [compound 10] | 1.081% | 47.0
